# Results as given in patent US10968222B2, “2-azabicyclo hexane JAK inhibitor compound” (THERAVANCE BIOPHARMA R&D IP, LLC, priority 2018, dated 2021).
# Columns and labels:
# PKAC-ALPHA = molecular target: T1, PKAC-ALPHA (Homo sapiens, UniProt P17612); assay: Kinome screen, PKAC-ALPHA; assay type: binding; settings: screened at 1 μM
# T1 construct: made in house; host or cells: E. coli BL21-derived host (T7 phage) or HEK-293 cells
# Method: (§1) Compounds 1 and C-1 were screened against other kinases to evaluate their selectivity profile.
# (§2) Kinase-tagged T7 phage strains were grown in parallel in 24-well blocks in an E. coli host derived from the BL21 strain. E. coli were grown to log-phase and infected with T7 phage from a frozen stock (multiplicity of infection=0.4) and incubated with shaking at 32° C. until lysis (90-150 minutes). The lysates were centrifuged (6,000×g) and filtered (0.2 μm) to remove cell debris. The remaining kinases were produced in HEK-293 cells and subsequently tagged with DNA for qPCR detection.
# (§3) Streptavidin-coated magnetic beads were treated with biotinylated small molecule ligands for 30 minutes at room temperature to generate affinity resins for kinase assays. The liganded beads were blocked with excess biotin and washed with blocking buffer (SeaBlock (Pierce), 1% BSA, 0.05% Tween 20, 1 mM DTT) to remove unbound ligand and to reduce non-specific phage binding. Binding reactions were assembled by combining kinases, liganded affinity beads, and test compounds in 1× binding buffer (20% SeaBlock, 0.17×PBS, 0.05% Tween 20, 6 mM DTT). Test compounds were prepared as 40× stocks in 100% DMSO and directly diluted into the assay. All reactions were performed in polypropylene 384-well plates in a final volume of 0.04 ml. […] The kinase concentration in the eluates was measured by qPCR. […]
# PLK4 = molecular target: T2, PLK4 (Homo sapiens, UniProt O00444); assay: Kinome screen, PLK4; assay type: binding; settings: screened at 1 μM
# T2 construct: made in house; host or cells: E. coli BL21-derived host (T7 phage) or HEK-293 cells
# Method: as §1, §2, §3
# CSF1R = molecular target: T3, CSF1R (Homo sapiens, UniProt P07333); assay: Kinome screen, CSF1R; assay type: binding; settings: screened at 1 μM
# T3 construct: made in house; host or cells: E. coli BL21-derived host (T7 phage) or HEK-293 cells
# Method: as §1, §2, §3
# ALK = molecular target: T4, ALK (Homo sapiens, UniProt Q9UM73); assay: Kinome screen, ALK; assay type: binding; settings: screened at 1 μM
# T4 construct: made in house; host or cells: E. coli BL21-derived host (T7 phage) or HEK-293 cells
# Method: as §1, §2, §3
# EPHB6 = molecular target: T5, EPHB6 (Homo sapiens, UniProt O15197); assay: Kinome screen, EPHB6; assay type: binding; settings: screened at 1 μM
# T5 construct: made in house; host or cells: E. coli BL21-derived host (T7 phage) or HEK-293 cells
# T5 sequence (O15197 32-1021): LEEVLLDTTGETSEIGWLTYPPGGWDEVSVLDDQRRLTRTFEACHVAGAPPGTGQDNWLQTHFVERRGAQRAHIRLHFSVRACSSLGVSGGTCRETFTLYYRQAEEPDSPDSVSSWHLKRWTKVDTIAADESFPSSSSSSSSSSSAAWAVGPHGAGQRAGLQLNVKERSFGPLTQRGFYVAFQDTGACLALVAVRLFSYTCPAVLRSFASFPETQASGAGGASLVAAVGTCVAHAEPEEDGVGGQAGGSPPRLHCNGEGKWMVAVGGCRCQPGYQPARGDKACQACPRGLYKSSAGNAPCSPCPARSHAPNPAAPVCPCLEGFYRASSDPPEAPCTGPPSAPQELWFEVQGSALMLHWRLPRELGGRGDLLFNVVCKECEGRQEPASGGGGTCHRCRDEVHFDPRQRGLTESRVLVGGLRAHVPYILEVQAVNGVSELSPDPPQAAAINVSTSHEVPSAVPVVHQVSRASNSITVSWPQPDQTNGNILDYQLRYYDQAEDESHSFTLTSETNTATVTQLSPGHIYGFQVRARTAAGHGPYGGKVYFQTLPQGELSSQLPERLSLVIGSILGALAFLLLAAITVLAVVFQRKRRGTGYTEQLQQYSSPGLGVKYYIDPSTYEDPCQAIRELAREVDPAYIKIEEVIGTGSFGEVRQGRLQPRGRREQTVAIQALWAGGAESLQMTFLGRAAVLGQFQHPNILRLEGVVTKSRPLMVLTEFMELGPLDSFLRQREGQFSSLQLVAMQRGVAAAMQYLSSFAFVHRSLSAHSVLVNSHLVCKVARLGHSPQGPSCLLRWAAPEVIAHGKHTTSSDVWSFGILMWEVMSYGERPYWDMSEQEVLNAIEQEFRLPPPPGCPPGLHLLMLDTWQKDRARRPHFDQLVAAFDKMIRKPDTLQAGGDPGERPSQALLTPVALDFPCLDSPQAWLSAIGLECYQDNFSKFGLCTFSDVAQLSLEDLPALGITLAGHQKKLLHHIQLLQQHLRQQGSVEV
# Method: as §1, §2, §3
# KIT = molecular target: T6, KIT (Homo sapiens, UniProt P10721); assay: Kinome screen, KIT; assay type: binding; settings: screened at 1 μM
# T6 construct: made in house; host or cells: E. coli BL21-derived host (T7 phage) or HEK-293 cells
# Method: as §1, §2, §3
# VEGFR2 = molecular target: T7, VEGFR2 (Homo sapiens, UniProt P35968); assay: Kinome screen, VEGFR2; assay type: binding; settings: screened at 1 μM
# T7 construct: made in house; host or cells: E. coli BL21-derived host (T7 phage) or HEK-293 cells
# T7 sequence (P35968 20-1356): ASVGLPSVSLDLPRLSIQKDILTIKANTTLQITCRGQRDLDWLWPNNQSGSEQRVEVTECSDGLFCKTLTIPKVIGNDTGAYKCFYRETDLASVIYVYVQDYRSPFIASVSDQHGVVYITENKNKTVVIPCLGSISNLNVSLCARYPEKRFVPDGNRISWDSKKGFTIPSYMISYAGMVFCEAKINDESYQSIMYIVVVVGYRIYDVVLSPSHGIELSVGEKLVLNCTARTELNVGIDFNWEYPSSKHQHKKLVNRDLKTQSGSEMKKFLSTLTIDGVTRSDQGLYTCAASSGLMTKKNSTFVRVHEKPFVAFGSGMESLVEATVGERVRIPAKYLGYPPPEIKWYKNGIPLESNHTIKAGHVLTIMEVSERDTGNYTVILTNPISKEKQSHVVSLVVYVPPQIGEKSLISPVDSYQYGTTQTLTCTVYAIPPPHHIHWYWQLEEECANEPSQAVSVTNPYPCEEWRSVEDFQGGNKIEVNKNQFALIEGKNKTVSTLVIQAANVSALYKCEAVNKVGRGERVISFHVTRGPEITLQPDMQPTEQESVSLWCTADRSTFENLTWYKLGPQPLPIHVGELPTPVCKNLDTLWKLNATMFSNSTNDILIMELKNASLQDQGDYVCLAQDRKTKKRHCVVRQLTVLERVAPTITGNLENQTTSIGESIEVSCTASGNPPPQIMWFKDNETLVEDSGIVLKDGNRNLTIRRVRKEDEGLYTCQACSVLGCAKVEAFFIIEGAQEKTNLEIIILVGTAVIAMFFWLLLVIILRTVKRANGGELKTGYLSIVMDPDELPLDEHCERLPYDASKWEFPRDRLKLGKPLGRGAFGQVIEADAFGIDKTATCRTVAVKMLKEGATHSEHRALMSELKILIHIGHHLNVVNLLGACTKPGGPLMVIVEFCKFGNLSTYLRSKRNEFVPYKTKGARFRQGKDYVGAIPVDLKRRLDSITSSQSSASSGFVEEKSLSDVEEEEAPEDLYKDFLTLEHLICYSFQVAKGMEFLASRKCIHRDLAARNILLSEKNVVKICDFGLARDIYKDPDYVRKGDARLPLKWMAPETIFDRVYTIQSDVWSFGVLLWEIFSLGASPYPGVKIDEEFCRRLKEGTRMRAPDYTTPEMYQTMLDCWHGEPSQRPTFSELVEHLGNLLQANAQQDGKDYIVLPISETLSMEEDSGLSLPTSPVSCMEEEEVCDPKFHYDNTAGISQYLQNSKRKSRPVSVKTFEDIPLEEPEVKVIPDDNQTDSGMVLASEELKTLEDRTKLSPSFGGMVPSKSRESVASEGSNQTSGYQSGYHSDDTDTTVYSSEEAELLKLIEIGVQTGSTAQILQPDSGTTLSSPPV
# Method: as §1, §2, §3
# SYK = molecular target: T8, SYK (Homo sapiens, UniProt P43405); assay: Kinome screen, SYK; assay type: binding; settings: screened at 1 μM
# T8 construct: made in house; host or cells: E. coli BL21-derived host (T7 phage) or HEK-293 cells
# Method: as §1, §2, §3
# SLK = molecular target: T9, SLK (Homo sapiens, UniProt Q9H2G2); assay: Kinome screen, SLK; assay type: binding; settings: screened at 1 μM
# T9 construct: made in house; host or cells: E. coli BL21-derived host (T7 phage) or HEK-293 cells
# Method: as §1, §2, §3
# CDK9 = molecular target: T10, CDK9 (Homo sapiens, UniProt P50750); assay: Kinome screen, CDK9; assay type: binding; settings: screened at 1 μM
# T10 construct: made in house; host or cells: E. coli BL21-derived host (T7 phage) or HEK-293 cells
# Method: as §1, §2, §3
# [1] = tested on: BEAS-2B human lung epithelial cells; assay: CellTiter-Glo cell viability/cytotoxicity assay; assay type: cell-based; settings: BEAS-2B cells; 48 h; 15% inhibition threshold
# Method: A CellTiter-Glo luminescent cell viability/cytotoxicity assay was carried out in BEAS-2B human lung epithelial cells (ATCC) under the normal growth condition.
# Cells were grown at 37° C. in a 5% CO2 humidified incubator in 50% DMEM/50% F-12 medium (Life Technologies) supplemented with 10% FBS (Hyclone), 100 U/mL penicillin, 100 μg/mL streptomycin (Life Technologies), and 2 mM GlutaMAX (Life Technologies). On day 1 of the assay, cells were seeded at a 500 cells/well density in white 384-well tissue culture plates (Corning) with 25 μL medium, and were allowed to adhere overnight in the incubator. On day 2 of the assay, 5 μL of medium containing dose-responses of test compounds was added, and incubated at 37° C. for 48 h. 30 μL of CellTiter-Glo detection solution (Promega) was subsequently added, mixed on an orbital shaker for 5 min, and incubated for additional 10 min before being read on the EnVision reader. Luminescence signals were recorded and percent DMSO control values were calculated.
# For dose-response analysis, percent DMSO control data were plotted vs. compound concentrations to derive dose-response curves by line connecting each data point. The concentration at which each curve crosses the 15% inhibition threshold is defined as CC15.
# AURKA = molecular target: T11, AURKA (Homo sapiens, UniProt O14965); assay: Kinome screen, AURKA; assay type: binding; settings: screened at 1 μM
# T11 construct: made in house; host or cells: E. coli BL21-derived host (T7 phage) or HEK-293 cells
# T11 sequence (O14965 whole entry): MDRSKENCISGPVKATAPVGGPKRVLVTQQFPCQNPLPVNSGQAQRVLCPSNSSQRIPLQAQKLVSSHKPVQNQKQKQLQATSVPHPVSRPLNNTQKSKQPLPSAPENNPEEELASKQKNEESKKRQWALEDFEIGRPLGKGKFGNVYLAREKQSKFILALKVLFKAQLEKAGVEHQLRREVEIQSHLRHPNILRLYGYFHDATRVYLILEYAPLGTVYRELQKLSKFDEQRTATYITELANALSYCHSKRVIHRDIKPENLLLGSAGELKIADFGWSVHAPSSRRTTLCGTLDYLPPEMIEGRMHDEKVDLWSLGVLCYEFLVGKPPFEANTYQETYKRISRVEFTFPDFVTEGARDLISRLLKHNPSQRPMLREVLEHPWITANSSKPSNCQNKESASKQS
# Method: as §1, §2, §3
# CDK7 = molecular target: T12, CDK7 (Homo sapiens, UniProt P50613); assay: Kinome screen, CDK7; assay type: binding; settings: screened at 1 μM
# T12 construct: made in house; host or cells: E. coli BL21-derived host (T7 phage) or HEK-293 cells
# T12 sequence (P50613 whole entry): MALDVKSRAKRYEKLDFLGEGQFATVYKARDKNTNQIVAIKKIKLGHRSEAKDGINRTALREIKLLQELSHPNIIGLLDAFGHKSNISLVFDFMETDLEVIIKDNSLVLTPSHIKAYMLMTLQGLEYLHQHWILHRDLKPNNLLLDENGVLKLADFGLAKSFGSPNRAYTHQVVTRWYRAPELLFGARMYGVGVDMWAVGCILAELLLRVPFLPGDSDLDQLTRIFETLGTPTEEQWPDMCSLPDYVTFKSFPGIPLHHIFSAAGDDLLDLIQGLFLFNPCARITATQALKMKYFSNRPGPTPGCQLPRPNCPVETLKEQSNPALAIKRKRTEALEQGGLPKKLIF
# Method: as §1, §2, §3
# CSNK1D = molecular target: T13, CSNK1D (Homo sapiens, UniProt P48730); assay: Kinome screen, CSNK1D; assay type: binding; settings: screened at 1 μM
# T13 construct: made in house; host or cells: E. coli BL21-derived host (T7 phage) or HEK-293 cells
# T13 sequence (P48730 whole entry): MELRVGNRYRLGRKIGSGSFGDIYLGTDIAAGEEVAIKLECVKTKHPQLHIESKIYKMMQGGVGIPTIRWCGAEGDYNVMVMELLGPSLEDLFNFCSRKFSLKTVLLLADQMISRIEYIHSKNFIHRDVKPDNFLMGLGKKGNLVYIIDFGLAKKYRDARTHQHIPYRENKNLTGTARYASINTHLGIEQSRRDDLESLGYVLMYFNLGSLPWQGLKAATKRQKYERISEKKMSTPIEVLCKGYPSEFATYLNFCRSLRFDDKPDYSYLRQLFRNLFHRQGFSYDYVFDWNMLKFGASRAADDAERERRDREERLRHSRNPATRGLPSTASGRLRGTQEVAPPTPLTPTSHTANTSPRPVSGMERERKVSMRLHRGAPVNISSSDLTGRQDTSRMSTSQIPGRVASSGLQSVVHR
# Method: as §1, §2, §3
# GSK3B = molecular target: T14, GSK3B (Homo sapiens, UniProt P49841); assay: Kinome screen, GSK3B; assay type: binding; settings: screened at 1 μM
# T14 construct: made in house; host or cells: E. coli BL21-derived host (T7 phage) or HEK-293 cells
# T14 sequence (P49841 whole entry): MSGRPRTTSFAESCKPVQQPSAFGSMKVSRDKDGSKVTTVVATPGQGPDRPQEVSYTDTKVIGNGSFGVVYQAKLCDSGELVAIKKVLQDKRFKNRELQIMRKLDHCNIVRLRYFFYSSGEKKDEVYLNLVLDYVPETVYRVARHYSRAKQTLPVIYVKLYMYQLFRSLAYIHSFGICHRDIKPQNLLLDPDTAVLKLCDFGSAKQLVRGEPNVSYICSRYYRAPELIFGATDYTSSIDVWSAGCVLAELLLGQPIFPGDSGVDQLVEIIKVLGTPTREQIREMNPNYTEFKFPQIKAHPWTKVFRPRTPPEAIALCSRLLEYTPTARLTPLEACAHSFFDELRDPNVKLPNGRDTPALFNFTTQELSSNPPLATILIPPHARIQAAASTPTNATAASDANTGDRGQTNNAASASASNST
# Method: as §1, §2, §3
# SRC = molecular target: T15, SRC (Homo sapiens, UniProt P12931); assay: Kinome screen, SRC; assay type: binding; settings: screened at 1 μM
# T15 construct: made in house; host or cells: E. coli BL21-derived host (T7 phage) or HEK-293 cells
# T15 sequence (P12931 whole entry): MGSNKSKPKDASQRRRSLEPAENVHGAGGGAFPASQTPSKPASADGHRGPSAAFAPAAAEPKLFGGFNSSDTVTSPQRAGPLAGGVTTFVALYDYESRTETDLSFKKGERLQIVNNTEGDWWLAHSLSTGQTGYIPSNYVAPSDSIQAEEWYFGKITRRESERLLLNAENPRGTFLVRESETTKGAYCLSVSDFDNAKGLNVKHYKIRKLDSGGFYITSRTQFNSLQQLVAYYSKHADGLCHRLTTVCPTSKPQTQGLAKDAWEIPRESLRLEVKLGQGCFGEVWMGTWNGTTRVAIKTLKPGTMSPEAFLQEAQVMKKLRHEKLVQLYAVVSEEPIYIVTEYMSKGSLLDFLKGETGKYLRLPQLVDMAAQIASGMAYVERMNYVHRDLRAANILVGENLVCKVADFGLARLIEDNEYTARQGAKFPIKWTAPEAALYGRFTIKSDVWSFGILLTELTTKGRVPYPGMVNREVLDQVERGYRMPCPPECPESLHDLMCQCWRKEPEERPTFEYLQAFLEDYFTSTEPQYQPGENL
# Method: as §1, §2, §3
# CDK2 = molecular target: T16, CDK2 (Homo sapiens, UniProt P24941); assay: Kinome screen, CDK2; assay type: binding; settings: screened at 1 μM
# T16 construct: made in house; host or cells: E. coli BL21-derived host (T7 phage) or HEK-293 cells
# Method: as §1, §2, §3
# PAK4 = molecular target: T17, PAK4 (Homo sapiens, UniProt O96013); assay: Kinome screen, PAK4; assay type: binding; settings: screened at 1 μM
# T17 construct: made in house; host or cells: E. coli BL21-derived host (T7 phage) or HEK-293 cells
# T17 sequence (O96013 whole entry): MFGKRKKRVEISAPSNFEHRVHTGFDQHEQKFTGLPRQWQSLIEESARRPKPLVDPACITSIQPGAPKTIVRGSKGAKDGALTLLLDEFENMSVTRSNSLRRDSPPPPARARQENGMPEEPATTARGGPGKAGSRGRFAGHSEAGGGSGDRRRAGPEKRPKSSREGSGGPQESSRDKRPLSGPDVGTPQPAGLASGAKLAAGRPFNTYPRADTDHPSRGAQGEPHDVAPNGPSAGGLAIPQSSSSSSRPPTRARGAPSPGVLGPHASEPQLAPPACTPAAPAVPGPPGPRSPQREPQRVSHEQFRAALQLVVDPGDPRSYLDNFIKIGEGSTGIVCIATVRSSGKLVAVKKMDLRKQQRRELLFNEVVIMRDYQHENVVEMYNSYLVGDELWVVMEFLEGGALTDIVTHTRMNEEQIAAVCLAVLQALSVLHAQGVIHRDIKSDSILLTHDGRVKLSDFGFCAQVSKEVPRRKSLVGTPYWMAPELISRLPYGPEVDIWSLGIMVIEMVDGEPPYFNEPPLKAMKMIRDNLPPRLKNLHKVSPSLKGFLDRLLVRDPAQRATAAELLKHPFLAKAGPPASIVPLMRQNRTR
# Method: as §1, §2, §3
compound,measurement,setting,value
"CCc1cc(O)c(F)cc1-c1ccc2c(-c3nc4c([nH]3)CCN(C(=O)[C@]35C[C@H]3CCN5)C4)n[nH]c2c1 [Compound C-1, ((1S,5R)-2-azabicyclo[3.1.0]hexan-1-yl)(2-(6-(2-ethyl-5-fluoro-4-hydroxyphenyl)-1H-indazol-3-yl)-1,4,6,7-tetrahydro-5H-imidazo[4,5-c]pyridin-5-yl)methanone, reference compound]",inhibition at 1 µM,PKAC-ALPHA,55%
same,inhibition at 1 µM,PLK4,40%
same,inhibition at 1 µM,CSF1R,100%
same,inhibition at 1 µM,ALK,87%
same,inhibition at 1 µM,EPHB6,96.5%
same,inhibition at 1 µM,KIT,98.5%
same,inhibition at 1 µM,VEGFR2,59%
same,inhibition at 1 µM,SYK,82%
same,inhibition at 1 µM,SLK,99.9%
same,inhibition at 1 µM,CDK9,89%
same,CC15,[1],1580 nM
same,pCC15,[1],5.8
same,inhibition at 1 µM,AURKA,54%
same,inhibition at 1 µM,CDK7,98.8%
same,inhibition at 1 µM,CSNK1D,66%
same,inhibition at 1 µM,GSK3B,52%
same,inhibition at 1 µM,SRC,98.9%
same,inhibition at 1 µM,CDK2,50%
same,inhibition at 1 µM,PAK4,89%
